Source: patent US5521200A, “2-oxo-pyrrolo[1,2-A]benzimidazole-3-carboxyl derivatives useful in treating central nervous system disorders” (priority 1994, dated 1996)

Columns and labels:
[1] = test system: metrazol-induced convulsions in mice; test: Suppression of Metrazol-Induced Convulsions; type: in vivo, mouse (male CD1 mice); conditions: Mus musculus, ip, sc metrazol CD90, block of clonic convulsions, greater than 30 = active dose not determined
[2] = biological target: benzodiazepine site of the GABA-A receptor; test: Benzodiazepine Receptor Binding Assay (inhibition of 3H-flunitrazepam binding); conditions: ca. 3 nM 3H-flunitrazepam, 10-20 min at 25° C., membranes; over 10,000 = not active
[3] = test system: adult male rat (conflict behavior suppressed by punishment); test: Suppression of anxiety in the adult male rat (Conflict, Vogel); type: in vivo; conditions: ip, minimum effective dose, greater than 10 = active dose not determined, read-out: Conflict MED
Text: The experiment was run the next day.

Row | Structure (SMILES) | ED50 [1] [mg/kg] | IC50 [2] [µM] | minimal effective dose [3] [mg/kg]
1 | O=C1CN2C(=C1C(=O)Nc1ccncc1)Nc1ccccc12 [CP #1, N-(4-Pyridyl)-1,2-dihydro-4H-pyrrolo[1,2-a]benzimidazole-3-carboxamide-2(1H)-one] | > 10 | 7.22 | > 10
2 | CN(C)c1ccc(NC(=O)C2=C3Nc4ccccc4N3CC2=O)cc1 [CP #2, N-(4-Dimethylaminophenyl)-1,2-dihydro-2-oxo-4H-pyrrolo[1,2-a]benzimidazole-3-carboxamide] | > 30 | 1.74 | > 10
3 | O=C1CN2C(=C1C(=O)Nc1cc(F)ccc1F)Nc1ccccc12 [CP #3, N-(2,5-Difluorophenyl)-1,2-dihydro-2-oxo-4H-pyrrolo[1,2-a]benzimidazole-3-carboxamide] | – | > 10 | > 10
4 | O=C1CN2C(=C1C(=O)Nc1c(F)cccc1F)Nc1ccccc12 [CP #5, N-(2,6-Difluorophenyl)-1,2-dihydro-2-oxo-4H-pyrrolo[1,2-a]benzimidazole-3-carboxamide] | 6 | 0.0801 | < 10
5 | CN1C2=C(C(=O)Nc3c(F)cccc3F)C(=O)C(C)(C)N2c2ccccc21 [CP #6, N-(2,6-Difluorophenyl)-1,2-dihydro-1,1,4-trimethyl-4H-pyrrolo[1,2-a]benzimidazole-3-carbozamide-2(1H) one] | 1 to 10 | > 10 | > 10
6 | CCN1C2=C(C(=O)Nc3c(F)cccc3F)C(=O)CN2c2ccccc21 [CP #7, N-(2,6-Difluorophenyl)-1,2-dihydro-4-ethyl-4H-pyrrolo[1,2-a]benzimidazole-3-carboxamide-2(1H)-one] | > 10 | > 10 | > 10
7 | O=C1CN2C(=C1C(=O)Nc1ccc(F)cc1F)Nc1ccccc12 [CP #8, N-(2,4-Difluorophenyl)-1,2-dihydro-2-oxo-4H-pyrrolo[1,2-a]benzimidazole-3-carboxamide] | – | > 10 | > 10
